Assay results reported in patent US11851697B2, “Ex vivo protease activity detection for disease detection/diagnostic, staging, monitoring and treatment” (Glympse Bio, Inc., priority 2020, dated 2023).
Square brackets hold non-standard residues; d marks the D form. Primed or numbered codes have the meaning given here. Ends that are not written are not given here. CPQ2(3) = quencher on Lys side chain; FAM = fluorescent reporter; PEG2″ = PEG2 spacer; CPQ2 = quencher

How the values were obtained:
[1] = system: cathepsin and/or MMP protease activities; experiment: Ex vivo probe cleavage in plasma of healthy, NASH regression and NASH progression mice; format: biochemical; conditions: K2EDTA plasma collected at 20 weeks
Text: Plasma samples were collected from all animals at 20 weeks.
The probes showing the most differentiation in NASH were linked to cathepsin and/or MMP protease activities.

[2] = system: proteases in NASH and healthy plasma cleaving Probe #102; experiment: Inhibitor profiling of Probe #102 cleavage in NASH and healthy plasma; format: biochemical, mice
Method: For this experiment, all plasma samples were prepared individually and diluted 1/10e in PBS with inhibitor added directly to the samples. Inhibitor was prepared at 15× concentration to final. Substrates were diluted in DI water at 18 uM, such that the final concentration on the plate would be 6 uM. All samples were prepared such that their last dilution on the plate would not affect the desired final concentration. 10 ul of each individual sample was pipetted into their corresponding wells, and the plate was then spun down in the centrifuge at 1500 RPM for 30 seconds to coat the bottom of each well with the sample. 5 ul of the 18 uM substrate solution was pipetted into each well being used on a 384 well plate, and then the plate was spun down in the centrifuge at 1500 rpm for 30 seconds. The plate was placed immediately in the plate reader at 37° C. for a 30-minute-long fluorescence kinetic read at 485/535 extended gain.
To assess the proteolytic cleavage pattern of Probe #102, samples were tested using a pool of broad inhibitors for serine, cysteine, threonine, MMP and aspartic protease family members (broad inhibitor) to assess general protease activity, AEBSF for serine proteases, E64 for cysteine proteases, CTSi for broad cathepsin inhibition of cathepsins L, S, K and B, or specific inhibitors for cathepsin K (L00625), for cathepsin L (SID) or cathepsin B (CA074).

[3] = system: caspase activity in hepatitis; experiment: Ex vivo probe cleavage in plasma of Jo2 fulminant hepatitis mice; format: biochemical; conditions: mouse plasma 3 hours after Jo2 injection vs healthy
Method: Fulminant hepatitis is induced after injection intraperitoneal of monoclonal antibody anti-CD95 (Jo2, BD biosciences, 4 ug/animal), and mouse plasma samples were collected 3 hours after Jo2 injection.

COVID-related proteases = experiment: Ex vivo probe cleavage in COVID vs healthy K2EDTA and Lithium Heparin plasma; format: biochemical
[4] = cited from earlier work
[5] = both K2EDTA and Lithium Heparin plasma sets

## Probe #102: a CTSL sensing probe; sequence in Table 1 ({FAM}-GKPILFFRLKGK(CPQ2(3))[PEG2″][dK][dK]GC; not fully specified; printed as (FAM)-GKPILFFRLKG-K(CPQ2)-PEG2-kk-GC)
[1]
  differentiation among healthy, regression and NASH samples: can differentiate
[2]; individual cathepsin inhibitors, FIG. 30D-F
  protease to which the probe responds: specifically responds to the activity of cathepsin L (CTSL)

## CC(C)C[C@H](NC(=O)[C@H]1O[C@@H]1C(=O)O)C(=O)NCCCCN=C(N)N [Probe E64, E64]
[2]; NASH plasma, Probe #102, less decrease in signal for healthy
  effect on NASH signal: decreased NASH signal significantly

## Probe #520: probe of Table 1 (GKPISLISSGK; not fully specified; 5FAM, CPQ2 quencher, PEG2; MOD_RES (11)..(11) Lys modified with a CPQ2 quencher)
[1]
  differentiation among healthy, regression and NASH samples: can differentiate

## Probe #12: Caspase centric probe (GDEVDGK; not fully specified; 5-FAM, CPQ2 quencher, PEG2; MOD_RES (7)..(7) Lys modified with a CPQ2 quencher)
[3]
  contrast in Jo2 hepatitis model: show contrast that is specific and sensitive to the Jo2 model

## Probe #492: probe of Table 1 ({FAM}-GQRANSIRVTWGK(CPQ2(3))[PEG2″][dK][dK]GC; not fully specified; printed as (FAM)-GQRANSIRVTWG-K(CPQ2)-(PEG2)-DLys-DLys-GC)
[1]
  differentiation among healthy, regression and NASH samples: can differentiate

## CN1CCN(c2nc(-c3ccc(C(=O)NC4(C(=O)NCC#N)CCCCC4)cc3)cs2)CC1 [Probe L006235]
[2]; Probe #102
  effect on signal for NASH or healthy samples: did not significantly decrease signal

## Probe #8: Caspase centric probe (GVDVADGK; not fully specified; 5-FAM, CPQ2 quencher, PEG2; MOD_RES (8)..(8) Lys modified with a CPQ2 quencher)
[3]
  contrast in Jo2 hepatitis model: show contrast that is specific and sensitive to the Jo2 model

## Probe #18: a Neutrophil elastase substrate (GAAPVGK(CPQ2); not fully specified (N-terminus, C-terminus); also: 5-FAM (place not given here), PEG2-kk-GC (place not given here))
COVID-related proteases; [5]
  differential cleavage between COVID and healthy samples: demonstrated contrast in both sets

## CCCNC(=O)[C@H]1O[C@@H]1C(=O)N[C@H](C(=O)N1CCC[C@H]1C(=O)O)[C@@H](C)CC [CA074]
[2]; Probe #102
  effect on signal for NASH or healthy samples: did not significantly decrease signal

## Probe #96: probe of Table 1 ({FAM}-GRPLALWESQGK(CPQ2)[PEG2″][dK]GC; not fully specified; printed as (FAM)-GRPLALWESQG-K(CPQ2)-PEG2-k-GC; also: FAM, position not given here)
[1]
  differentiation among healthy, regression and NASH samples: can differentiate

## Probe #84: a Furin substrate (GRVKRGLAGK(CPQ2); not fully specified (N-terminus, C-terminus); also: 5-FAM (place not given here), PEG2-kk-GC (place not given here))
COVID-related proteases; [5]
  differential cleavage between COVID and healthy samples: demonstrated contrast in both sets

## Probe #462: a MMP8 substrate (GKKAKRNALGK(CPQ2); not fully specified (N-terminus, C-terminus); also: FAM (place not given here), PEG2, DLys-DLys-GC (place not given here))
COVID-related proteases; [5]
  differential cleavage between COVID and healthy samples: demonstrated contrast in both sets

## O=c1[nH]c(-c2ccccc2O)nc2ccccc12 [HPQ, 2-(2″-hydroxyphenyl)-4(3H)-quinazolinone]
[4]
  solubility in water: strictly insoluble in water

## NCCc1ccc(S(=O)(=O)F)cc1 [AEBSF]
[2]; NASH plasma, Probe #102
  decrease of NASH signal: 65%
[2]; healthy plasma, Probe #102
  decrease of healthy signal: 60%

## Probe #409: the SARS CoV2 coronavirus substrate (SARS-COV2 3C protease) (GTSAVLQSGFRKGK(CPQ2); not fully specified (N-terminus, C-terminus); also: 5-FAM (place not given here), PEG2-kk-GC (place not given here))
COVID-related proteases; K2 EDTA samples
  differential cleavage between COVID and healthy samples: modest contrast

## O=c1nc(-c2cc(C(=C(c3ccccc3)c3ccccc3)c3ccccc3)ccc2O)[nH]c2ccc(Cl)cc12 [HTPQ]
[4]
  solubility in water: strictly insoluble in water

## Probe #428: probe of Table 1 ({FAM}-GDRRKKLTQGK(CPQ2(3))[PEG2″][dK][dK]GC; not fully specified; printed as (FAM)-GDRRKKLTQG-K(CPQ2)-(PEG2)-DLys-DLys-GC)
[1]
  differentiation among healthy, regression and NASH samples: can differentiate
